How the values were obtained:
[1] = Phase 2 diagnostic image quality, 3-point scale, independent readers; assay type: in vivo, human
Procedure: Diagnostic quality was assessed for all scans using a 3-point scale and then percentages for each category were summarized for each reader and time point. No formal hypothesis testing was performed.

[2] = Phase 1 independent reader assessment of image quality (lesion evaluation and general) of 5, 7, 9 mCi scans; assay type: in vivo, human; settings: for Lesion evaluation Image Quality Score (Mean [SD]) / Number of Lesions visible: 4-hour scans
Procedure: The Phase 1 portion of the study included a total of 12 patients with biochemical, recurrent PC after prostatectomy or radiation therapy. Patients were randomized into 3 groups of 4 patients. Patients in a given group received a single intravenous dose of 5, 7, or 9 mCi (±10%) of copper Cu-64 PSMA I&T. Whole-body PET/CT images were acquired at 1 hour (±15 minutes), 4 hours (±30 minutes), and 24 hours (±2.0 hours) post injection.
The 1-hour and 4-hour PET/CT images were evaluated independently by 3 readers blinded to all patient information, dose administration, and times of acquisition to assess the quality of the images (24 PET/CT image sets total). In addition, readers performed all assessments in one sitting with images scrambled such that the 1- and 4-hour imaging from the same patient was […]. The imaging protocol, scanner qualification, and imaging time/bed position were identical at 1, 4 and 24 hours and kept constant regardless of dose. The assessments were used together with dose reduction modeling to determine an acceptable dose to be administered for the Phase 2 portion of the study defined as the lowest copper Cu-64 PSMA I&T dose that yielded the most clinically relevant diagnostic image quality based on expert consensus review of all measurements and overall image quality.

O=C(O)CC[C@H](NC(=O)N[C@@H](CCCCNC(=O)CCCCCCC(=O)NCCCC[C@@H](NC(=O)[C@@H](Cc1ccccc1)NC(=O)[C@@H](Cc1ccc(O)c(I)c1)NC(=O)CC[C@H](C(=O)O)N1CCN(CC(=O)O)CCN(CC(=O)O)CCN(CC(=O)O)CC1)C(=O)O)C(=O)O)C(=O)O [Cu-64 PSMA I&T, 64 Cu-(3S, 7S, 26R, 29R, 32R, 37R)-29-benzyl-32(4-hydroxy-3-iodobenzyl)-5, 13, 20, 28, 31, 34-hexaoxo-37-(4,7,10-tris(carboxymethyl)-1,4,7, 10-tetraazacyclododecan-1-yl)-4,6, 12, 21, 27, 30, 33-heptaazaheptatriacontane-1,3,7, 26, 37-pentacarboxylic acid, metal not drawn]
Image Quality Acceptable, patients (%) ([1]; Reader 1, 1 Hour Post Dose): 26 (100.00%)
Image Quality Acceptable, patients (%) ([1]; Reader 1, 4 Hours Post Dose): 26 (100.00%)
Image Quality Acceptable, patients (%) ([1]; Reader 2, 1 Hour Post Dose): 24 (92.31%)
Image Quality Acceptable, patients (%) ([1]; Reader 2, 4 Hours Post Dose): 26 (100.00%)
Image Quality Acceptable, patients (%) ([1]; Reader 3, 1 Hour Post Dose): 26 (100.00%)
Image Quality Acceptable, patients (%) ([1]; Reader 3, 4 Hours Post Dose): 26 (100.00%)
image quality as assessed by the independent readers ([1]; at both 1 and 4 hours): acceptable
Average general image quality across timepoints ([2]; 5 mCi (n = 4)): 1.63 (0.58)
Average general image quality across timepoints ([2]; 7 mCi (n = 4)): 1.58 (0.58)
Average general image quality across timepoints ([2]; 9 mCi): 1.71 (0.46)
Lesion evaluation Image Quality Score (Mean [SD]) ([2]; Reader 1, 5 mCi): 2.00 (0.00)
Number of Lesions visible ([2]; Reader 1, 5 mCi): 19
Lesion evaluation Image Quality Score (Mean [SD]) ([2]; Reader 1, 7 mCi): 2.00 (0.00)
Number of Lesions visible ([2]; Reader 1, 7 mCi): 15
Lesion evaluation Image Quality Score (Mean [SD]) ([2]; Reader 1, 9 mCi): 2.00 (0.00)
Number of Lesions visible ([2]; Reader 1, 9 mCi): 12
General Image Quality score (Mean [SD]) ([2]; Reader 1, 1 hour, 5 mCi (n = 4)): 2.00 (0.00)
General Image Quality score (Mean [SD]) ([2]; Reader 1, 1 hour, 7 mCi (n = 4)): 2.00 (0.00)
General Image Quality score (Mean [SD]) ([2]; Reader 1, 1 hour, 9 mCi): 1.75 (0.50)
General Image Quality score (Mean [SD]) ([2]; Reader 1, 4 hours, 5 mCi (n = 4)): 1.75 (0.50)
General Image Quality score (Mean [SD]) ([2]; Reader 1, 4 hours, 7 mCi (n = 4)): 2.00 (0.00)
General Image Quality score (Mean [SD]) ([2]; Reader 1, 4 hours, 9 mCi): 1.75 (0.50)
Lesion evaluation Image Quality Score (Mean [SD]) ([2]; Reader 2, 5 mCi): 2.00 (0.00)
Number of Lesions visible ([2]; Reader 2, 5 mCi): 17
Lesion evaluation Image Quality Score (Mean [SD]) ([2]; Reader 2, 7 mCi): 1.77 (0.44)
Number of Lesions visible ([2]; Reader 2, 7 mCi): 13
Lesion evaluation Image Quality Score (Mean [SD]) ([2]; Reader 2, 9 mCi): 2.00 (0.00)
Number of Lesions visible ([2]; Reader 2, 9 mCi): 13
General Image Quality score (Mean [SD]) ([2]; Reader 2, 1 hour, 5 mCi (n = 4)): 2.00 (0.00)
General Image Quality score (Mean [SD]) ([2]; Reader 2, 1 hour, 7 mCi (n = 4)): 1.00 (0.82)
General Image Quality score (Mean [SD]) ([2]; Reader 2, 1 hour, 9 mCi): 1.75 (0.50)
General Image Quality score (Mean [SD]) ([2]; Reader 2, 4 hours, 5 mCi (n = 4)): 2.00 (0.00)
General Image Quality score (Mean [SD]) ([2]; Reader 2, 4 hours, 7 mCi (n = 4)): 1.50 (0.58)
General Image Quality score (Mean [SD]) ([2]; Reader 2, 4 hours, 9 mCi): 2.00 (0.00)
Number of Lesions visible ([2]; Reader 3, 5 mCi): 19
Number of Lesions visible ([2]; Reader 3, 7 mCi): 12
Lesion evaluation Image Quality Score (Mean [SD]) ([2]; Reader 3, 9 mCi): 1.85 (0.38)
Number of Lesions visible ([2]; Reader 3, 9 mCi): 13
General Image Quality score (Mean [SD]) ([2]; Reader 3, 1 hour, 5 mCi (n = 4)): 1.00 (0.00)
General Image Quality score (Mean [SD]) ([2]; Reader 3, 1 hour, 7 mCi (n = 4)): 1.25 (0.50)
General Image Quality score (Mean [SD]) ([2]; Reader 3, 1 hour, 9 mCi): 1.50 (0.58)
General Image Quality score (Mean [SD]) ([2]; Reader 3, 4 hours, 5 mCi (n = 4)): 1.00 (0.82)
General Image Quality score (Mean [SD]) ([2]; Reader 3, 4 hours, 7 mCi (n = 4)): 1.75 (0.50)
General Image Quality score (Mean [SD]) ([2]; Reader 3, 4 hours, 9 mCi): 1.50 (0.58)
QIQS (general image quality), lowest score ([2]; at 4 hours, 5, 7 and 9 mCi, all readers): ≥ 1.00

From US20250049972A1, “METHOD OF DETECTING PROSTATE CANCER IN A HUMAN SUBJECT USING A Cu 64 PSMA I&T INJECTION” (Curium US LLC, priority 2023, published 2025)
